Results from US11224628B2, “Method for extraction of an agent from a plant source” (Yissum Research Development Company of the Hebrew …, priority 2017, dated 2022).

Experiment: Self-diffusion NMR (SD-NMR) diffusion coefficients of the components of the AX-loaded medium
Assay type: physicochemical
Details: 0.5 wt % AX-loaded medium
Experimental: In order to determine the structure of the oil droplets (or micelles) of the medium, self-diffusion NMR analysis was carried out. SD-NMR is able to locate each component within the medium via measurements of its diffusion coefficient.
NMR measurements were performed with a Bruker AVII 500 spectrometer equipped with GREAT 1/10 gradients, a 5 mm BBO and a 5 mm BBI probe, both with a z-gradient coil and with a maximum gradient strength of 0.509 and 0.544 Tm^−1, respectively. Diffusion was measured using an asymmetric bipolar longitudinal eddy-current delay (bpLED) experiment, or an asymmetric bipolar stimulated echo (known as one-shot) experiment with convection compensation and an asymmetry factor of 20%, ramping the strongest gradient from 2% to 95% of maximum strength in 32 steps. The spectrum was processed with the Bruker TOPSPIN software. NMR spectra were recorded at 25±0.2° C. The components were identified by their chemical shift in 1H NMR.

SMILES	Diffusion coefficient (water content 0 wt %)	Diffusion coefficient (water content 10 wt %)	Diffusion coefficient (water content 20 wt %)	Diffusion coefficient (water content 30 wt %)	Diffusion coefficient (water content 40 wt %)	Diffusion coefficient (water content 50 wt %)	Diffusion coefficient (water content 60 wt %)	Diffusion coefficient (water content 70 wt %)	Diffusion coefficient (water content 80 wt %)	Diffusion coefficient (water content 90 wt %)
CCO [EtOH, Ethanol]	4.13 × 10^−11 m^2/sec	4.66 × 10^−11 m^2/sec	4.78 × 10^−11 m^2/sec	8.67 × 10^−11 m^2/sec	1.2 × 10^−10 m^2/sec	1.7 × 10^−10 m^2/sec	2.33 × 10^−10 m^2/sec	3.32 × 10^−10 m^2/sec	4.67 × 10^−10 m^2/sec	5.89 × 10^−10 m^2/sec
CC1=C(/C=C/C(C)=C/C=C/C(C)=C/C=C/C=C(C)/C=C/C=C(C)/C=C/C2=C(C)C(=O)[C@@H](O)CC2(C)C)C(C)(C)C[C@H](O)C1=O [AX, astaxanthin]	4.7 × 10^−12 m^2/sec	3 × 10^−12 m^2/sec	1.4 × 10^−12 m^2/sec	3 × 10^−13 m^2/sec	3 × 10^−13 m^2/sec	7 × 10^−13 m^2/sec	1.4 × 10^−12 m^2/sec	4.8 × 10^−12 m^2/sec	1.12 × 10^−11 m^2/sec	–
CCCCCCCC/C=C\CCCCCCCC(=O)OCCOCC(OCCO)C1OCC(OCCO)C1OCCO (stereo not shown) [Tween 80, Polysorbate 80]	4.5 × 10^−12 m^2/sec	3.5 × 10^−12 m^2/sec	2.9 × 10^−12 m^2/sec	6 × 10^−13 m^2/sec	4 × 10^−13 m^2/sec	9 × 10^−13 m^2/sec	2.2 × 10^−12 m^2/sec	5.3 × 10^−12 m^2/sec	1.05 × 10^−11 m^2/sec	1.91 × 10^−11 m^2/sec
C=C(C)[C@H]1CC=C(C)CC1 [R-(+)-limonene, R-(+)-Limonene]	5.46 × 10^−11 m^2/sec	3.09 × 10^−11 m^2/sec	2.36 × 10^−11 m^2/sec	3.2 × 10^−12 m^2/sec	1.4 × 10^−12 m^2/sec	1.4 × 10^−12 m^2/sec	3.1 × 10^−12 m^2/sec	5.7 × 10^−12 m^2/sec	1.10 × 10^−11 m^2/sec	1.91 × 10^−11 m^2/sec
[2H]O[2H] [Formulation D2O, D2O]	–	3.1 × 10^−11 m^2/sec	2.84 × 10^−11 m^2/sec	3.2 × 10^−12 m^2/sec	1.3 × 10^−12 m^2/sec	2.69 × 10^−11 m^2/sec	7.96 × 10^−10 m^2/sec	9.1 × 10^−10 m^2/sec	1.16 × 10^−9 m^2/sec	1.48 × 10^−09 m^2/sec
CC(O)CO (stereo not shown) [PG, Propylene glycol]	4.43 × 10^−11 m^2/sec	4.78 × 10^−11 m^2/sec	4.86 × 10^−11 m^2/sec	8.69 × 10^−11 m^2/sec	1.23 × 10^−10 m^2/sec	1.75 × 10^−10 m^2/sec	2.41 × 10^−10 m^2/sec	3.35 × 10^−10 m^2/sec	4.67 × 10^−10 m^2/sec	6.03 × 10^−10 m^2/sec
